In paper PMC5618657, “Osmolyte-Like Stabilizing Effects of Low GdnHCl Concentrations on D-Glucose/D-Galactose-Binding Protein” (International Journal of Molecular Sciences, 2017):
Where two headings read alike, the source gives them in different places.

What was measured:
Parameters in all cases: species or system E. coli
wtGGBP = target: T1, wtGGBP (Escherichia coli, UniProt P0AEE5); assay: Isothermal titration calorimetry of glucose binding (wild type); conditions: read-out: Kd (ITC)
T1 construct: polyhistidine (C); made in house; host or cells: E. coli BL21(DE3)
Text: (§1) For this purpose, we used isothermal titration calorimetry (ITC) (Figure 7), since this approach allows for the determination of both the stoichiometric and thermodynamic binding parameters. The results of the ITC analysis generally corresponded to the data generated by the fluorescent-based analysis of the GGBP/H152C-BADAN interaction with glucose in solutions with sub-denaturing GdnHCl concentrations. […] The enthalpy contribution to the Gibbs free energy change caused by the interaction of studied proteins with glucose was principal in all solutions tested. This indicates the significant contribution of the hydrogen bonds between protein and glucose to the protein-ligand complex formation, [91] which is in excellent agreement with the X-ray structural data showing that the glucose binding to the GGBP active center is stabilized by 13 hydrogen bonds. […]
(§2) The parameters of the binding of mutant GGBP/H152C and wtGGBP with glucose in buffer, GdnHCl, and urea solutions were determined using the isothermal titration calorimeter TA Nano ITC (TA Instruments, New Castle, DE, USA) at the Resource Center of the Thermogravimetric and Calorimetric Research (Research Park of St. Petersburg State University). […]

GGBP/H152C-BADAN = target: T2, GGBP/H152C-BADAN (Escherichia coli, UniProt P0AEE5, H175C); assay: Stopped-flow fluorescence kinetics of glucose binding; conditions: glucose 0.5 mM, protein 0.6 μM, 23 °C
T2 construct: polyhistidine (C); BADAN (fluorescent dye covalently linked to Cys152); made in house; host or cells: E. coli BL21(DE3)
Text: The greater affinity of GGBP to glucose in the presence of low GdnHCl concentrations was also manifested by an increase in the binding rate of glucose to the protein in the presence of 0.1 M GdnHCl. It is known that, at high concentrations of one of the reactants, the reaction rate is predominately determined by the content of the substance with a low concentration (pseudo-first order conditions). Therefore, it can be expected that in solutions of high glucose concentration, the rate of the GGBP/H152C-glucose complex formation will be determined by the content of molecules with the semi-closed conformations in a protein ensemble. […]
It is expected that the decay curves should contain at least two rate constants characterizing the interconversion between the protein conformers in the absence of ligand and reflecting the glucose binding to GGBP/H152C [88]. […] Therefore, in practice, the recorded curves are approximated by monoexponential decay.
The kinetics of glucose binding to GGBP/H152C-BADAN in a timeframe from 0 to 0.04 s was measured using the MOS450spectrometerequipped with the stopped-flow mixing module SFM-4 (Bio-Logic, Seyssinet-Pariset, France). The excitation wavelength was 387 nm, the dye fluorescence signal was filtered by cut-off filter at 405 nm. […]

GGBP/H152C = target: T3, GGBP/H152C (Escherichia coli, UniProt P0AEE5, H175C); assay: Isothermal titration calorimetry of glucose binding (mutant); conditions: Kd (ITC)
T3 construct: polyhistidine (C); made in house; host or cells: E. coli BL21(DE3)
Text: as §1, §2

[1] = solution without denaturants (black)

T1 sequence (P0AEE5 24-332 limits assumed): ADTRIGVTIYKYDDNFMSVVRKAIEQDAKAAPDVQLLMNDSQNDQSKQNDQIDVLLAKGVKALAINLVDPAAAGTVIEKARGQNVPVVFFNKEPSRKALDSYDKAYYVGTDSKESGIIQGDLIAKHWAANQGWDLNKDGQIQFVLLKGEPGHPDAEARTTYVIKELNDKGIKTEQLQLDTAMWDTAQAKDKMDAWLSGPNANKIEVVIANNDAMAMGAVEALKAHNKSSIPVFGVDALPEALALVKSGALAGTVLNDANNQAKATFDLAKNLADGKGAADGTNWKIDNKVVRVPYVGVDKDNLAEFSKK
T2 sequence (P0AEE5 24-332 H175C limits assumed): as the sequence (P0AEE5 24-332 limits assumed) above, with H152C counted along it
T3 sequence (P0AEE5 24-332 H175C limits assumed): as the sequence (P0AEE5 24-332 limits assumed) above, with H152C counted along it

With `OC[C@H]1OC(O)[C@H](O)[C@@H](O)[C@@H]1O` (stereo partly drawn) [glucose, D-Glucose] the Kd (wtGGBP; 0.1 M GdnHCl (red)) was 280 ± 60 nM, the Kd (wtGGBP; [1]) was 310 nM and the “k (rate of GGBP/H152C-glucose complex formation)” value (GGBP/H152C-BADAN; in 0.1 M GdnHCl) was 508 s⁻¹. For the same compound, the “k (rate of GGBP/H152C-glucose complex formation)” value (GGBP/H152C-BADAN; without denaturants) was 465 s⁻¹, the Kd (GGBP/H152C; 0.1 M GdnHCl (red)) was 2290 ± 80 nM and the Kd (GGBP/H152C; [1]) was 3050 nM.
